Reference: patent US20020016330A1, “Materials and methods for killing nematodes and nematode eggs” (priority 2000, published 2002)

Legend:
Caenorhabditis elegans [1] = experiment: C. elegans L1 nematicidal dose response, 5 day visual viability score (3-fold dilutions); assay type: in vivo; set-up: key: Dead: only stiff L1s (no movement); Dead (L4): worms are dead, but at a later larval stage; majority of worms are L1 (based on size); majority of worms are L2 (based on size); majority of worms are L3 (based on size); majority of worms are L4 (based on size); AD: majority of worms are adult; #AD: 5 adult worms or less; B!: sterile (0-25 progeny); B: low broodsize (25-100 progeny); ˜B: moderate broodsize (100-250 progeny); <: reduced broodsize (250-500 progeny); OK: no effect (˜1000+ progeny); conditions: for 5 Day Visual Score V2: 23.3 μM; for 5 Day Visual Score V1: 70 μM; for 5 Day Visual Score V6: 0.3 μM; for 5 Day Visual Score V5: 0.9 μM; for 5 Day Visual Score V4: 2.6 μM; for 5 Day Visual Score V3: 7.8 μM
Description: Caenorhabditis elegans adults were grown on Nematode Growth Medium (NGM) until they produced eggs, then the adults were removed.
The eggs were allowed to hatch, and the L1 larvae collected. See The Nematode Caenorhabditis elegans (1988) Cold Spring Harbor Laboratory Press. Using a Matrix Programmable Pipette, the L1s were distributed into 96-well tissue culture plates, 20 L1 in 50 μl NGM per well. Antibiotic/Antimyotic was added to each well, and 1% by weight E. coli strain HB101. The subject anthelmintic compounds were stored at 5 mM in 100% DMSO. 0.7 μl of compounds 1-31 were added to the left-most column of wells to yield a final concentration of 70 μM in 1.4% DMSO, with 1.4% DMSO only as the control. The compounds were then subjected to 5 more 3-fold dilutions from left to right to yield 6 column concentrations of 70 μM, 23.3 μM, 7.8 μM, 2.6 μM, 0.9 μM, and 0.3 μM. Plates were stored in air-tight Rubbermaid plastic boxes at 20° C. The nematodes had cleared all control wells by day 4, and nematode viability was scored by visual examination under a 100× dissecting microscope on day 5. A visual viability scoring system was used as follows:
Column VI has a compound concentration of 70 μM with sequential 3-fold dilutions reported in columns V2, V3, V4, V5, and V6, respectively, such that the V6 concentration was 0.3 μM.
(§1) The nematicidal activity of anthelmintic Compositions 48-68 were determined in accordance with the procedure outlined in Example 2.

Caenorhabditis elegans [2] = experiment: Initial HTS Run (mOD, % Run, visual score); conditions: in vivo
Description: as §1

Caenorhabditis elegans [3] = experiment: Follow-up HTS Run (mOD, % Run, visual score); set-up: key to Follow-up HTS Run Visual Score: Dead: only stiff L1s (no movement); Dead (L4): worms are dead, but at a later larval stage; majority of worms are L1 (based on size); majority of worms are L2 (based on size); majority of worms are L3 (based on size); majority of worms are L4 (based on size); AD: majority of worms are adult; #AD: 5 adult worms or less; B!: sterile (0-25 progeny); B: low broodsize (25-100 progeny); ˜B: moderate broodsize (100-250 progeny); <: reduced broodsize (250-500 progeny); OK: no effect (˜1000+ progeny); conditions: in vivo
Description: as §1

[4] = Table 3, procedure of Example 2

Row | SMILES | 5 Day Visual Score V2 (Caenorhabditis elegans [1]; scored day 5) | 5 Day Visual Score V1 (Caenorhabditis elegans [1]; scored day 5) | 5 Day Visual Score V6 (Caenorhabditis elegans [1]; scored day 5) | 5 Day Visual Score V4 (Caenorhabditis elegans [1]; scored day 5) | 5 Day Visual Score V5 (Caenorhabditis elegans [1]; scored day 5) | 5 Day Visual Score V3 (Caenorhabditis elegans [1]; scored day 5) | also measured
1 | Fc1ccc(N2CCN(c3nc(NCc4ccc(C(F)(F)F)cc4)ns3)CC2)cc1 [AKC 135] | L1 | Dead | – | – | – | – | –
2 | CC(C)(C)c1csc(NC(=O)Cc2cn(Cc3ccccc3Cl)c3ccc(Cl)cc23)n1 [AKC 157] | – | – | – | – | – | – | 5 Day Visual Score V6 (Caenorhabditis elegans [1]; [4]): OK (no effect (˜1000+ progeny)); 5 Day Visual Score V5 (Caenorhabditis elegans [1]; [4]): OK (no effect (˜1000+ progeny)); 5 Day Visual Score V4 (Caenorhabditis elegans [1]; [4]): < (reduced broodsize (250-500 progeny)); 5 Day Visual Score V3 (Caenorhabditis elegans [1]; [4]): < (reduced broodsize (250-500 progeny)); 5 Day Visual Score V2 (Caenorhabditis elegans [1]; [4]): OK (no effect (˜1000+ progeny)); Initial HTS Run % Run (Caenorhabditis elegans [2]): 98%; Initial HTS Run mOD (Caenorhabditis elegans [2]): 120 mOD; Follow-up HTS Run % Run (Caenorhabditis elegans [3]): 108%; Follow-up HTS Run mOD (Caenorhabditis elegans [3]): 174 mOD
3 | CCCCOc1ccc(C(=O)N2CC(OCCCc3ccccc3)CC2C(=O)NCc2ccccc2OC)cc1 (stereo not shown) [AKC 126] | – | – | #AD/˜B | #AD/˜B | – | – | –
4 | Cc1ccc(C(CC(=O)c2ccccc2)Nc2ccc(I)cc2)o1 (stereo not shown) [AKC 128] | Dead | Dead | OK (no effect (˜1000+ progeny)) | L1 | #AD/˜B | Dead | –
5 | CCCCCCCCS(=O)(=O)N1CCN(C(=O)c2cc(C(F)(F)F)cc(C(F)(F)F)c2)CC1C(=O)NCc1ccccc1 (stereo not shown) [AKC 165] | – | – | – | – | – | – | 5 Day Visual Score V6 (Caenorhabditis elegans [1]; [4]): OK (no effect (˜1000+ progeny)); 5 Day Visual Score V5 (Caenorhabditis elegans [1]; [4]): OK (no effect (˜1000+ progeny)); 5 Day Visual Score V4 (Caenorhabditis elegans [1]; [4]): OK (no effect (˜1000+ progeny)); 5 Day Visual Score V3 (Caenorhabditis elegans [1]; [4]): < (reduced broodsize (250-500 progeny)); Initial HTS Run % Run (Caenorhabditis elegans [2]): 115%; Initial HTS Run mOD (Caenorhabditis elegans [2]): 142 mOD; Follow-up HTS Run % Run (Caenorhabditis elegans [3]): 126%; Follow-up HTS Run Visual Score (Caenorhabditis elegans [3]): Dead; Follow-up HTS Run mOD (Caenorhabditis elegans [3]): 203 mOD
6 | Cc1ccc(C(CC(=O)c2ccccc2)Nc2ccc(I)cc2F)o1 (stereo not shown) [AKC 129] | Dead | Dead | – | – | OK (no effect (˜1000+ progeny)) | – | –
7 | CCCCCCCCS(=O)(=O)N1CCN(C(=O)C=Cc2cccc(C(F)(F)F)c2)CC1C(=O)NCc1ccc(C(F)(F)F)cc1 (stereo not shown) [AKC 171] | L2 | Dead | – | – | – | Dead(L4)/#A | 5 Day Visual Score V3 (Caenorhabditis elegans [1]; [4]): Dead; 5 Day Visual Score V2 (Caenorhabditis elegans [1]; [4]): L2; 5 Day Visual Score V1 (Caenorhabditis elegans [1]; [4]): Dead; Initial HTS Run % Run (Caenorhabditis elegans [2]): 101%; Initial HTS Run mOD (Caenorhabditis elegans [2]): 124 mOD; Follow-up HTS Run % Run (Caenorhabditis elegans [3]): 111%; Follow-up HTS Run Visual Score (Caenorhabditis elegans [3]): Dead; Follow-up HTS Run mOD (Caenorhabditis elegans [3]): 179 mOD
8 | CCOc1cccc(C2ON=C(c3ccccc3OCC)C2C(=O)NCc2ccc(OC(F)(F)F)cc2)c1 (stereo not shown) [AKC 125] | L2/Dead(L4) | L2/Dead(L3) | – | L2 | – | L2 | –
9 | O=C(Nc1ccc(Br)cc1)N1CCC(c2nc(-c3ccccc3)no2)CC1 [AKC 108] | Dead | Dead | – | L1 | – | L1 | –
10 | Cc1ccc(-c2noc(C3CCC(CNC(=O)Nc4ccc(OC(F)(F)F)cc4)CC3)n2)cc1C (stereo not shown) [AKC 112] | – | – | OK (no effect (˜1000+ progeny)) | – | #AD/˜B | – | –
11 | CCOc1ccc(C2ON=C(c3ccc(N(C)C)cc3)C2C(=O)NCCc2ccc(F)cc2)cc1 (stereo not shown) [AKC 123] | – | L1 | #AD/˜B | – | – | – | –
12 | O=C(NCCCCCc1nc(-c2ccccc2)no1)Nc1ccc(OC(F)(F)F)cc1 [AKC 115] | Dead(L2/L3) | Dead | – | Dead(L2) | Dead(L2/L | L2/Dead(L2) | –
13 | CCCc1ccc(C(Nc2ccc(-c3ccccc3)cc2)C2CCCCC2=O)cc1 (stereo not shown) [AKC 132] | Dead | Dead(L2) | Dead | – | – | Dead | –
14 | O=C(NCCc1ccccc1F)C1C(c2ccc(F)cc2)=NOC1c1ccc(-c2ccccc2)cc1 (stereo not shown) [AKC 2153] | L1 | L1 | – | – | – | – | –
15 | O=C(Nc1ccc(Br)cc1)NC1CCC(c2nc(-c3ccccc3)no2)CC1 (stereo not shown) [AKC 114] | L3/Dead(L4) | Dead | – | L3/Dead(L | – | L3 | –
16 | CCOc1ccc(C2ON=C(c3ccc(F)cc3)C2C(=O)NCCc2ccc(F)cc2)cc1 (stereo not shown) [AKC 122] | L1 | Dead | OK (no effect (˜1000+ progeny)) | – | – | – | –
17 | O=C(NCCc1ccccc1F)C1C(c2ccccc2Cl)=NOC1c1ccc(-c2ccccc2)cc1 (stereo not shown) [AKC 110] | L1 | L1 | L1 | L1 | L1 | L1 | –
18 | O=C(Nc1ccc(OC(F)(F)F)cc1)NC1CCC(c2nc(-c3ccccc3)no2)CC1 (stereo not shown) [AKC 107] | Dead(L2/L3) | Dead | L2/Dead(L | Dead(L4) | – | – | –
19 | O=C(NCC1CCC(c2nc(-c3ccccc3)no2)CC1)Nc1ccc(OC(F)(F)F)cc1 (stereo not shown) [AKC 113] | Dead | Dead | L4/#AD/B | Dead(L2/L | – | Dead | –
20 | CCOc1ccccc1C1=NOC(c2cccc3ccccc23)C1C(=O)NCc1ccc(OC(F)(F)F)cc1 (stereo not shown) [AKC 105] | L2/Dead(L3) | L2/Dead(L3) | – | L2/Dead(L | L2/Dead(L | L2/Dead(L3) | –
21 | COc1ccc(C2=NOC(c3ccc(-c4ccccc4)cc3)C2C(=O)NCCc2ccccc2F)cc1 (stereo not shown) [AKC 121] | L1 | L1 | – | #AD/˜B | – | – | –
22 | CCCCOc1ccc(-c2noc(C3CCC(NC(=O)c4ccc5c(c4)OCO5)CC3)n2)cc1 (stereo not shown) [AKC 103] | Dead(L3/L4 | – | – | – | L4/#AD/B | Dead(L4) | –
23 | CCOc1cccc(C2ON=C(c3ccccc3OCC)C2C(=O)NCCc2ccc(OC)c(OCC)c2)c1 (stereo not shown) [AKC 124] | – | – | L4/#AD/B | L4/#AD/B | L4/#AD/B | – | –
24 | CCC1CCCCN1c1cc(Oc2ccc3oc4ccccc4c3c2)ncn1 (stereo not shown) [AKC 340] | L1 | L1 | – | – | – | – | –
25 | CCC(=O)C(C)C(Nc1cc(Br)c(C)c(Br)c1)c1ccc(C)o1 (stereo not shown) [AKC 131] | L1 | Dead | – | #AD/˜B | #AD/˜B | #AD/˜B | –
26 | CC(C)(C)C1=NOC(c2ccc(-c3ccccc3)cc2)C1C(=O)NCCc1ccccc1F (stereo not shown) [AKC 120] | – | L1 | OK (no effect (˜1000+ progeny)) | – | #AD/˜B | L1 | –
27 | COc1ccccc1-c1noc(C(C)CNC(=O)Nc2ccc(OC(F)(F)F)cc2)n1 (stereo not shown) [AKC 111] | Dead | Dead | OK (no effect (˜1000+ progeny)) | Dead(L3/L | – | L2 | –
28 | CCCCOc1ccc(C(=O)N2CC(OCCCc3ccccc3)CC2C(=O)NCc2ccccc2Br)cc1 (stereo not shown) [AKC 102] | – | – | – | L3 | – | – | –
